Read-outs that look alike come from different tables or passages of the source.
What was measured:
[1] = system: PC-3 human prostate cancer cell line; experiment: cells; settings: Homo sapiens
Source text: (§1) Cells were stained with SRB solution.

[2] = system: DU 145 human prostate cancer cell line; experiment: Cytotoxicity (SRB) assay, DU 145; format: cell-based
Source text: as §1

[3] = system: PPC-1 human prostate cancer cell line; experiment: Cytotoxicity (SRB) assay, PPC-1; format: cell-based; settings: Homo sapiens, PPC-1, Table 6A; read-out: IC50 ± SEM, PPC-1 (converted)
Source text: as §1

[4] = read-out: IC50 PC-3, SRB assay, prostate cancer PC-3
[5] = read-out: IC50 ± SEM, PC-3, Table 6A
[6] = Homo sapiens, DU-145, Table 6A, read-out: IC50 ± SEM, DU 145
[7] = read-out: IC50 ± SEM, PC-3, Table 13
[8] = read-out: IC50 ± SEM, PC-3, Table 12

## COc1cc(/C(=N/N)c2csc(-c3ccccc3)n2)cc(OC)c1OC [2d-cis, (Z)-4-(hydrazono(3,4,5-trimethoxyphenyl)methyl)-2-phenylthiazole]
[1]; [4]
  IC50: 1.12 µM

## COc1cc(C(=O)c2csc(-c3cc4ccccc4[nH]3)n2)cc(OC)c1OC [62a, (2-(1H-indol-2-yl)thiazol-4-yl)(3,4,5-trimethoxyphenyl)methanone]
[1]; read-out: IC50 PC-3
  IC50: 0.024 µM

## COc1cc(C(=O)[C@@H]2CSC(c3ccc(O[Si](C)(C)C(C)(C)C)cc3)=N2)cc(OC)c1OC [58a, (R)-(2-(4-(tert-Butyldimethylsilyloxy)phenyl)-4,5-dihydrothiazol-4-yl)(3,4,5-trimethoxyphenyl)methanone]
[1]; read-out: IC50 PC-3
  IC50: 0.183 ± 0.024 µM

## COc1cc(C(=O)c2csc(Nc3ccccc3)n2)cc(OC)c1OC [5a, (2-(phenylamino)thiazol-4-yl)(3,4,5-trimethoxyphenyl)methanone]
[1]; [4]
  IC50: 0.057 ± 0.003 µM

## COc1cc(NS(=O)(=O)c2cccc(-c3ccccc3)c2)cc(OC)c1OC [4d, N-(3,4,5-Trimethoxyphenyl)biphenyl-3-sulfonamide]
[1]; [4]
  IC50: > 10 µM

## COc1cc(C(=O)c2csc(-c3ccccc3)n2)cc(OC)c1OC(=O)C(F)(F)F [compound 23]
[1]; [5]
  IC50: ~10 µM
[2]; [6]
  IC50: ~10 µM
[3]
  IC50: ~10 µM

## O=C(c1ccc(F)cc1)c1csc(-c2ccc(F)cc2)n1 [compound 14]
[1]; [5]
  IC50: > 10 µM
[2]; [6]
  IC50: > 10 µM
[3]
  IC50: > 10 µM

## COc1cccc(C(=O)c2cn(S(=O)(=O)c3ccccc3)c(-c3ccccc3)n2)c1 [11ac, (3-methoxyphenyl)(2-phenyl-1-(phenylsulfonyl)-1H-imidazol-4-yl)methanone]
[1]; [7]
  IC50: > 10 µM

## COc1cc(C(=C(C)C)c2csc(-c3ccccc3)n2)cc(OC)c1OC [2a, 4-(2-Methyl-1-(3,4,5-trimethoxyphenyl)prop-1-enyl)-2-phenylthiazole]
[1]; [4]
  IC50: 2.47 µM

## COc1ccc(C(=O)c2cn(S(=O)(=O)c3ccccc3)c(-c3ccccc3)n2)cc1 [11ab, (4-methoxyphenyl)(2-phenyl-1-(phenylsulfonyl)-1H-imidazol-4-yl)methanone]
[1]; [7]
  IC50: > 10 µM

## c1ccc(Nc2nccn2C(c2ccccc2)(c2ccccc2)c2ccccc2)cc1 [d, N-Phenyl-1-trityl-1H-imidazol-2-amine]
[1]; [4]
  IC50: > 1 µM

## CO/N=C(/c1cc(OC)c(OC)c(OC)c1)c1csc(-c2ccccc2)n1 [2f-cis, (Z)-(2-Phenylthiazol-4-yl)(3,4,5-trimethoxyphenyl)methanone O-methyl oxime]
[1]; [4]
  IC50: > 10 µM

## COc1cc(C(=O)c2c[nH]c(Nc3ccccc3)n2)cc(OC)c1OC [5e, (2-(phenylamino)-1H-imidazol-4-yl)(3,4,5-trimethoxyphenyl)methanone]
[1]; [4]
  IC50: > 1 µM

## O=C(c1ccc(F)cc1)N1CCC(c2ccccc2)CC1 [compound 22]
[1]; [5]
  IC50: > 20 µM
[2]; [6]
  IC50: > 20 µM
[3]
  IC50: > 20 µM

## COc1cc(C(=O)c2cn(S(=O)(=O)c3ccccc3)c(-c3ccc4c(c3)cc(C(=O)c3cc(OC)c(OC)c(OC)c3)n4S(=O)(=O)c3ccccc3)n2)cc(OC)c1OC [16xaa, (1-(phenylsulfonyl)-2-(1-(phenylsulfonyl)-2-(3,4,5-trimethoxybenzoyl)-1H-indol-5-yl)-1H-imidazol-4-yl)(3,4,5-trimethoxyphenyl)methanone]
[1]; read-out: IC50 ± SEM, PC-3
  IC50: > 10 µM

## COc1cc(/C(=C\C#N)c2csc(-c3ccccc3)n2)cc(OC)c1OC [2c-cis, (E)-3-(2-phenylthiazol-4-yl)-3-(3,4,5-trimethoxyphenyl)acrylonitrile]
[1]; read-out: IC50 PC-3
  IC50: ~10 µM

## CN(C)c1ccc(-c2nc(C(=O)c3ccc(F)cc3)c[nH]2)cc1 [12gb, (2-(4-(dimethylamino)phenyl)-1H-imidazol-4-yl)(4-fluorophenyl)methanone]
[1]; [8]
  IC50: 0.081 µM

## O=C(c1cccc(F)c1)c1cn(S(=O)(=O)c2ccccc2)c(-c2ccccc2)n1 [11ag, (3-fluorophenyl)(2-phenyl-1-(phenylsulfonyl)-1H-imidazol-4-yl)methanone]
[1]; [7]
  IC50: > 10 µM

## COc1cc(-c2nc(C(=O)c3ccc(F)cc3)cn2C(=O)c2ccc(F)cc2)cc(OC)c1OC [compound 30]
[1]; [5]
  IC50: > 10 µM
[2]; [6]
  IC50: > 10 µM
[3]
  IC50: > 10 µM

## COc1cc(/C(=C/C#N)c2csc(-c3ccccc3)n2)cc(OC)c1OC [2c-trans, (Z)-3-(2-phenylthiazol-4-yl)-3-(3,4,5-trimethoxyphenyl)acrylonitrile]
[1]; read-out: IC50 PC-3
  IC50: 0.89 µM

## COc1cc(C(=O)c2c[nH]c(-c3ccc(C(F)(F)F)cc3)n2)cc(OC)c1OC [12pa, (2-(4-(trifluoromethyl)phenyl)-1H-imidazol-4-yl)(3,4,5-trimethoxyphenyl)methanone]
[1]; [8]
  IC50: 0.127 µM

## 4-Methoxyphenyl(4-(3,4,5-trimethoxyphenyl)-1H-imidazol-2-yl)methanone and 4-methoxyphenyl(5-(3,4,5-trimethoxyphenyl)-1H-imidazol-2-yl)methanone [70y]
[2]; Table 13B, read-out: inhibitory effects, DU145
  IC50: > 50 µM

## COc1cc(C(=O)c2csc(-c3ccccc3)n2)cc(OC)c1OC(=O)CCl [compound 18]
[1]; [5]
  IC50: ~10 µM
[2]; [6]
  IC50: ~10 µM
[3]
  IC50: ~10 µM

## CO/N=C(\c1cc(OC)c(OC)c(OC)c1)c1csc(-c2ccccc2)n1 [2f-trans, (E)-(2-Phenylthiazol-4-yl)(3,4,5-trimethoxyphenyl)methanone O-methyl oxime]
[1]; [4]
  IC50: > 10 µM

## COc1cc(C(=O)c2csc(Nc3ccc(F)cc3)n2)cc(OC)c1OC [5c, (2-(p-fluorophenylamino)thiazol-4-yl)(3,4,5-trimethoxyphenyl)methanone]
[1]; [4]
  IC50: 0.043 ± 0.001 µM

## COc1cc(/C=C/c2csc(-c3ccccc3)n2)cc(OC)c1OC [3b, (E)-2-Phenyl-4-(3,4,5-trimethoxystyryl)thiazole]
[1]; read-out: IC50 PC-3
  IC50: > 10 µM

## Cc1ccc(-c2nc(C(=O)c3ccc(F)cc3)cs2)cc1 [compound 11]
[1]; [5]
  IC50: > 10 µM
[2]; [6]
  IC50: > 10 µM
[3]
  IC50: > 10 µM

## O=C(c1cc(O)c(O)c(O)c1)c1csc(-c2ccccc2)n1 [compound 33]
[1]; [5]
  IC50: > 2 µM
[2]; [6]
  IC50: > 2 µM
[3]
  IC50: > 2 µM

## COc1cc(C(=O)c2cn(C(c3ccccc3)(c3ccccc3)c3ccccc3)c(Nc3ccccc3)n2)cc(OC)c1OC [e, (2-(Phenylamino)-1-trityl-1H-imidazol-4-yl)(3,4,5 trimethoxyphenyl)methanone]
[1]; [4]
  IC50: > 1 µM

## COc1cc([S+]([O-])c2cccc(-c3ccccc3)c2)cc(OC)c1OC (centres unmarked) [4c, 3-(3,4,5-Trimethoxyphenylsulfinyl)biphenyl]
[1]; [4]
  IC50: > 10 µM

## COc1ccc(-c2nc(C(=O)c3ccc(F)cc3)cn2C)cc1 [12cba, (4-fluorophenyl)(2-(4-methoxyphenyl)-1-methyl-1H-imidazol-4-yl)methanone]
[1]; [7]
  IC50: > 10 µM

## O=C(c1cc(O)c(O)c(O)c1)c1c[nH]c(-c2cc(O)c(O)c(O)c2)n1 [13ea, (3,4,5-trihydroxyphenyl)(2-(3,4,5-trihydroxyphenyl)-1H-imidazol-4-yl)methanone]
[1]; [8]
  IC50: > 10 µM

## COc1cc(/C(=N\N)c2csc(-c3ccccc3)n2)cc(OC)c1OC [2d-trans, (E)-4-(hydrazono(3,4,5-trimethoxyphenyl)methyl)-2-phenylthiazole]
[1]; [4]
  IC50: 1.04 µM

## COc1cc(-c2csc(-c3ccccc3)n2)cc(OC)c1OC [2i, 2-Phenyl-4-(3,4,5-trimethoxyphenyl)thiazole]
[1]; [4]
  IC50: > 10 µM

## COc1cc(C(=O)c2csc(-c3ccc(CNC(=O)OC(C)(C)C)cc3)n2)cc(OC)c1OC [68a, tert-Butyl 4-(4-(3,4,5-trimethoxybenzoyl)thiazol-2-yl)benzylcarbamate]
[1]; [4]
  IC50: 3.1 µM

## COc1cc(C(=O)c2csc(-c3ccccc3)n2)cc(OC)c1O [compound 34]
[1]; [5]
  IC50: > 10 µM
[2]; [6]
  IC50: > 10 µM
[3]
  IC50: > 10 µM

## O=C(c1csc(-c2cc(F)c(F)c(F)c2)n1)c1c(F)c(F)c(F)c(F)c1F [compound 16]
[1]; [5]
  IC50: > 10 µM
[2]; [6]
  IC50: > 10 µM
[3]
  IC50: > 10 µM

## COc1cc(C(=O)Nc2csc(-c3ccccc3)n2)cc(OC)c1OC [2h, 3,4,5-Trimethoxy-N-(2-phenylthiazol-4-yl)benzamide]
[1]; [4]
  IC50: > 10 µM

## O=C(c1ccc2c(c1)OCO2)N1CCC(c2ccccc2)CC1 [compound 19]
[1]; [5]
  IC50: > 20 µM
[2]; [6]
  IC50: > 20 µM
[3]
  IC50: > 20 µM

## COc1cc(C(=O)c2csc(Nc3ccc(Cl)cc3)n2)cc(OC)c1OC [5d, (2-(4-chlorophenylamino)thiazol-4-yl)(3,4,5-trimethoxyphenyl)methanone]
[1]; [4]
  IC50: 0.033 ± 0.001 µM

## COc1cc(C(=O)c2csc(-c3ccccc3)n2)cc(OC)c1OCc1ccccc1 [compound 9]
[1]; [5]
  IC50: ~10 µM
[2]; [6]
  IC50: ~10 µM
[3]
  IC50: ~10 µM

## COc1cc(C(=NC#N)c2csc(-c3ccccc3)n2)cc(OC)c1O [compound 32, N-((4-hydroxy-3,5-dimethoxyphenyl)(2-phenylthiazol-4-yl)methylene)cyanamide]
[1]; [5]
  IC50: 2.29 µM

## COc1cc(C(=O)c2cc(-c3ccccc3)n[nH]2)cc(OC)c1OC [1k, (3-Phenyl-1H-pyrazol-5-yl)(3,4,5-trimethoxyphenyl)methanone]
[1]; [4]
  IC50: 0.101 µM

## Cc1ccc(C(=O)c2cn(S(=O)(=O)c3ccccc3)c(-c3ccccc3)n2)cc1 [11ah, (2-phenyl-1-(phenylsulfonyl)-1H-imidazol-4-yl)(p-tolyl)methanone]
[1]; [7]
  IC50: > 10 µM

## Cc1ccc(-c2nc(C(=O)c3ccc(F)cc3)cn2S(=O)(=O)c2ccccc2)cc1 [11db, (4-fluorophenyl)(1-(phenylsulfonyl)-2-(p-tolyl)-1H-imidazol-4-yl)methanone]
[1]; [7]
  IC50: 0.08 µM

## O=C(c1ccc(OC(F)(F)F)cc1)c1csc(-c2ccccc2)n1 [compound 13]
[1]; [5]
  IC50: > 10 µM
[2]; [6]
  IC50: > 10 µM
[3]
  IC50: > 10 µM

## O=C(c1ccc(F)cc1)c1csc(-c2ccccc2)n1 [compound 12]
[1]; [5]
  IC50: > 10 µM
[2]; [6]
  IC50: > 10 µM
[3]
  IC50: > 10 µM

## COc1cc(S(=O)(=O)c2cccc(-c3ccccc3)c2)cc(OC)c1OC [4b, 3-(3,4,5-Trimethoxyphenylsulfonyl)biphenyl]
[1]; [4]
  IC50: > 10 µM
